Results as given in ChEMBL document CHEMBL4609983, “Pan-specific and partially selective dye-labeled peptidic inhibitors of the polycomb paralog proteins” (Bioorg Med Chem, 2020).
Non-standard residues stand in square brackets, D forms with d. Residues, ends and D or L forms follow the SMILES beside them. *: point of attachment. X1 = O=C(O)c1cc(NC(=S)*)ccc1-c1c2ccc(=O)cc-2oc2cc(O)ccc12; Lys(Me3) = C[N+](C)(C)CCCC[C@H](N)C(=O)O; Benzoyl(4-Br) = O=C(c1ccc(Br)cc1)*; Gly(cPent) = N[C@H](C(=O)O)C1CCCC1; Abu = CC[C@H](N)C(=O)O; βAla = NCCC(=O)O

Key:
[1] = molecular target: Chromobox protein homolog 1 (Homo sapiens, UniProt P83916); assay: Binding affinity to CBX1 (unknown origin) assessed as dissociation constant by fluorescence polarization analysis
[2] = molecular target: T1, Chromobox protein homolog 8 (Homo sapiens, UniProt Q9HC52); assay: Binding affinity to CBX8 (unknown origin) assessed as dissociation constant by fluorescence polarization analysis
T1 sequence (Q9HC52 whole entry): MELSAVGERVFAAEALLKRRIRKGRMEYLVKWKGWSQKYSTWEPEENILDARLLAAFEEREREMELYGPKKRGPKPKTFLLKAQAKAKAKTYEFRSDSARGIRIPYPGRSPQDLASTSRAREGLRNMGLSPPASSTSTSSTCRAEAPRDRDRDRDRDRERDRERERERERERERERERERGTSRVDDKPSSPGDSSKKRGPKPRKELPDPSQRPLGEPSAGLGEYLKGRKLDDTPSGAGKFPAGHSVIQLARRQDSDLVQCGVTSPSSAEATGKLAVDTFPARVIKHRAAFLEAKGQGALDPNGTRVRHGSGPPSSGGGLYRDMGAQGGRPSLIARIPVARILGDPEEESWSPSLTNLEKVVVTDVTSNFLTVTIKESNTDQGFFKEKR

[3] = molecular target: T2, E3 SUMO-protein ligase CBX4 (Homo sapiens, UniProt O00257); assay: Binding affinity to CBX4 (unknown origin) assessed as dissociation constant by fluorescence polarization analysis
T2 sequence (O00257 whole entry): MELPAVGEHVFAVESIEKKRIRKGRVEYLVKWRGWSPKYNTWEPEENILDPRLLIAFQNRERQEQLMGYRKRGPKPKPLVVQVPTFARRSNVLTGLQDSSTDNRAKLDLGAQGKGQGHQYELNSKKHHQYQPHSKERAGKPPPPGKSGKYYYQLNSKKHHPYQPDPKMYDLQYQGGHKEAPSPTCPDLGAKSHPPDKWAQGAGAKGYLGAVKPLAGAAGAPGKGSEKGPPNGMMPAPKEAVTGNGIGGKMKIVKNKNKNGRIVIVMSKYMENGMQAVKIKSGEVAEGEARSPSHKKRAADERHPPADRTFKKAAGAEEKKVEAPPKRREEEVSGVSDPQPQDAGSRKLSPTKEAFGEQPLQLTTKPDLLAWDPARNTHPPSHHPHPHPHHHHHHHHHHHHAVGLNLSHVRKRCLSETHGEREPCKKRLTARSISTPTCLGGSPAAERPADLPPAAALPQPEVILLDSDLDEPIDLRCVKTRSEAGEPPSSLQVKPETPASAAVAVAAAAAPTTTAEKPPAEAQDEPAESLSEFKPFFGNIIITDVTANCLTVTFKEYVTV

[4] = molecular target: T3, Chromobox protein homolog 6 (Homo sapiens, UniProt O95503); assay: Binding affinity to CBX6 (unknown origin) assessed as dissociation constant by fluorescence polarization analysis
T3 sequence (O95503 whole entry): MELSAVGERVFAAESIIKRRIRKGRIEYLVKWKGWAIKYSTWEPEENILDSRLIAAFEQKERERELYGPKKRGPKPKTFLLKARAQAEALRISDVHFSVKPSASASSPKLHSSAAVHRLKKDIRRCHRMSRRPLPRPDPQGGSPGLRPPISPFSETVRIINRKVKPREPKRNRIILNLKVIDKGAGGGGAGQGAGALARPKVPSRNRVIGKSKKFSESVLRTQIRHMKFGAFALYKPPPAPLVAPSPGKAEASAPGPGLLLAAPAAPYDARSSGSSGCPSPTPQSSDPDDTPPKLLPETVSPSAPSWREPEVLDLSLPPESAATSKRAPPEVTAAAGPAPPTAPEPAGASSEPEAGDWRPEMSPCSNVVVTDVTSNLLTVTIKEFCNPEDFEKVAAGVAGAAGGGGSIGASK

[5] = molecular target: T4, Chromobox protein homolog 2 (Homo sapiens, UniProt Q14781); assay: Binding affinity to CBX2 (unknown origin) assessed as dissociation constant by fluorescence polarization analysis
T4 sequence (Q14781 whole entry): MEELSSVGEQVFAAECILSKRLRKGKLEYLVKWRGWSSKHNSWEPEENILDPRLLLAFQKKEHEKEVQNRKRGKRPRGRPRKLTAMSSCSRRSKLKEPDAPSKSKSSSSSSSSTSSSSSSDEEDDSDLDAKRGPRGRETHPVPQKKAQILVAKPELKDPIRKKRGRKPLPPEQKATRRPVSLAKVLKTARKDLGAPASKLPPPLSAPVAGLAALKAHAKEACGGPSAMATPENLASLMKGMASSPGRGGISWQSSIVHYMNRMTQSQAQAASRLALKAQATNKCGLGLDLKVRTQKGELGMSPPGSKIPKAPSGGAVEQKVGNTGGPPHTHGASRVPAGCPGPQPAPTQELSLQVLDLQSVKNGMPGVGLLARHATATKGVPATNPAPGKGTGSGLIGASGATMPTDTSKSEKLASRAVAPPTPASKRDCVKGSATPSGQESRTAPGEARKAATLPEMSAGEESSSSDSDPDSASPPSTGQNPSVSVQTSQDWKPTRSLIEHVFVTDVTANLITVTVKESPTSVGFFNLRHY

[6] = molecular target: T5, Chromobox protein homolog 7 (Homo sapiens, UniProt O95931); assay: Binding affinity to CBX7 (unknown origin) assessed as dissociation constant by fluorescence polarization analysis
T5 sequence (O95931 whole entry): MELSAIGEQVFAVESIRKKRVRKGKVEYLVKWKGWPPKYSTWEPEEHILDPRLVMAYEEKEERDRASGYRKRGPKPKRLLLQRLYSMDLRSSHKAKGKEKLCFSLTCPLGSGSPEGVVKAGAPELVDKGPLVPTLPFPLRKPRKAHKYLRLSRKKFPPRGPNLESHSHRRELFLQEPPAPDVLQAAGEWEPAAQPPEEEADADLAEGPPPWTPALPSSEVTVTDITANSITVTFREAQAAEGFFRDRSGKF

[7] = molecular target: T3, Chromobox protein homolog 6; assay: Inhibition of CBX6 (unknown origin) assessed as […] by competitive FP assay
Homo sapiens [8] = species on record: Homo sapiens; assay: Selectivity ratio of IC50 for CBX8 (unknown origin) to IC50 for CBX7 (unknown origin)
[9] = molecular target: T5, Chromobox protein homolog 7; assay: Inhibition of CBX7 (unknown origin) assessed as […] by competitive FP assay
[10] = molecular target: T1, Chromobox protein homolog 8; assay: Inhibition of CBX8 (unknown origin) assessed as […] by competitive FP assay
Homo sapiens [11] = species on record: Homo sapiens; assay: Selectivity ratio of IC50 for CBX6 (unknown origin) to IC50 for CBX7 (unknown origin)
TOV21G = assay: Decrease in cell viability in human TOV21G cells by MTT assay; type: cell-based
[12] = Drug uptake in human TOV21G cells assessed as endosomal entrapment by measuring characteristic punctate dots in the cytoplasm at 10 uM by cell imaging analysis; type: ADME, cell-based
[13] = Drug uptake in cytoplasm of human TOV21G cells by live cell imaging analysis; type: ADME, cell-based
[14] = Drug uptake in human PC3 cells assessed as endosomal entrapment by measuring characteristic punctate dots in the cytoplasm at 10 uM by cell imaging analysis; type: ADME, cell-based; conditions: pc-3, 10 µM
[15] = Drug uptake in cytoplasm of human PC3 cells by live cell imaging analysis; type: ADME, cell-based; conditions: pc-3
[16] = Drug uptake in nucleus of human TOV21G cells by live cell imaging analysis; type: ADME, cell-based
[17] = Drug uptake in nucleus of human PC3 cells by live cell imaging analysis; type: ADME, cell-based; conditions: pc-3
Homo sapiens [18] = species on record: Homo sapiens; assay: Selectivity ratio of Kd for CBX4 (unknown origin) to Kd for CBX8 (unknown origin)
Homo sapiens [19] = species on record: Homo sapiens; assay: Selectivity ratio of Kd for CBX1 (unknown origin) to Kd for CBX8 (unknown origin)
Homo sapiens [20] = species on record: Homo sapiens; assay: Selectivity ratio of Kd for CBX7 (unknown origin) to Kd for CBX8 (unknown origin)
Homo sapiens [21] = species on record: Homo sapiens; assay: Selectivity ratio of Kd for CBX2 (unknown origin) to Kd for CBX8 (unknown origin)
Homo sapiens [22] = species on record: Homo sapiens; assay: Selectivity ratio of Kd for CBX6 (unknown origin) to Kd for CBX8 (unknown origin)

Sequence of Chromobox protein homolog 1 (P83916 whole entry): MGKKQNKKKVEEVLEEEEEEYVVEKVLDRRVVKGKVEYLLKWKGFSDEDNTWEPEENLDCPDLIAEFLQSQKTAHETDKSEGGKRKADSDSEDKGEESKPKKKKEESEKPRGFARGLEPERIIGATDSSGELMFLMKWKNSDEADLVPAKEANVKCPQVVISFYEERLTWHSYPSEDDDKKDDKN

SMILES | Kd [1] [nM] | Kd [2] [nM] | Kd [3] [nM] | Kd [4] [nM] | Kd [5] [nM] | Kd [6] [nM] | IC50 [7] [nM] | IC50 [9] [nM] | IC50 [10] [nM] | Activity (TOV21G) | other results
CC(=O)N[C@@H](Cc1ccccc1)C(=O)N[C@@H](Cc1ccccc1)C(=O)N[C@@H](C)C(=O)N[C@@H](CC(C)C)C(=O)N[C@@H](CCCC[N+](C)(C)C)C(=O)N[C@@H](CO)C(=O)N[C@@H](CCC(=O)O)C(=O)N[C@@H](CCCCNC(=S)Nc1ccc(-c2c3ccc(=O)cc-3oc3cc(O)ccc23)c(C(=O)O)c1)C(N)=O (Ac-FFAL[Lys(Me3)]SEK(X1)-NH2) | 110000 | 2600 | 15000 | 1000 | 18000 | 1500 |  |  |  |  | 
C[C@H](NC(=O)[C@H](Cc1ccccc1)NC(=O)c1ccc(Br)cc1)C(=O)N[C@@H](Cc1ccc(O)cc1)C(=O)N[C@@H](CCCC[N+](C)(C)C)C(=O)N[C@@H](CO)C(N)=O ({Benzoyl(4-Br)}-FAY[Lys(Me3)]S-NH2) |  |  |  |  |  |  | 16000 | 2300 | 42000 |  | Ratio IC50 (Homo sapiens [8]): 18; Ratio IC50 (Homo sapiens [11]): 7
C[C@H](NC(=O)[C@H](Cc1ccccc1)NC(=O)c1ccc(Br)cc1)C(=O)N[C@@H](Cc1ccc(O)cc1)C(=O)N[C@@H](CCCC[N+](C)(C)C)C(=O)N[C@@H](CO)C(=O)N[C@@H](CCC(=O)O)C(N)=O ({Benzoyl(4-Br)}-FAY[Lys(Me3)]SE-NH2) |  |  |  |  |  |  | 6000 | 2000 | 12000 | Non-Toxic | 
C[C@H](NC(=O)[C@H](Cc1ccccc1)NC(=O)c1ccc(Br)cc1)C(=O)N[C@@H](Cc1ccc(O)cc1)C(=O)N[C@@H](CCCC[N+](C)(C)C)C(=O)N[C@@H](CO)C(=O)N[C@@H](CCC(=O)O)C(=O)N[C@@H](CCCCNC(=S)Nc1ccc(-c2c3ccc(=O)cc-3oc3cc(O)ccc23)c(C(=O)O)c1)C(N)=O ({Benzoyl(4-Br)}-FAY[Lys(Me3)]SEK(X1)-NH2) | 4750 | 624 |  | 47 |  | 12 |  |  |  | Toxic | Drug uptake [12]: Active; Drug uptake [13]: Not Active; Drug uptake [14]: Active; Drug uptake [15]: Not Active; Drug uptake [16]: Not Active; Drug uptake [17]: Not Active
CC(C)C[C@H](NC(=O)[C@H](CO)NC(=O)[C@H](CCCC[N+](C)(C)C)NC(=O)[C@H](Cc1ccc(O)cc1)NC(=O)[C@H](C)NC(=O)[C@H](Cc1ccccc1)NC(=O)c1ccc(Br)cc1)C(N)=O ({Benzoyl(4-Br)}-FAY[Lys(Me3)]SL-NH2) |  |  |  |  |  |  | 13000 | 1100 | 19000 | Non-Toxic | 
CC(C)C[C@H](NC(=O)[C@H](CO)NC(=O)[C@H](CCCC[N+](C)(C)C)NC(=O)[C@H](Cc1ccc(O)cc1)NC(=O)[C@H](C)NC(=O)[C@H](Cc1ccccc1)NC(=O)c1ccc(Br)cc1)C(=O)N[C@@H](CCCCNC(=S)Nc1ccc(-c2c3ccc(=O)cc-3oc3cc(O)ccc23)c(C(=O)O)c1)C(N)=O ({Benzoyl(4-Br)}-FAY[Lys(Me3)]SLK(X1)-NH2) | 1750 | 890 |  | 78 |  | 11 |  |  |  |  | 
CC[C@H](NC(=O)[C@H](Cc1ccccc1)NC(=O)c1ccc(Br)cc1)C(=O)N[C@@H](Cc1ccccc1)C(=O)N[C@@H](CCCC[N+](C)(C)C)C(=O)N[C@@H](CO)C(=O)N[C@@H](CCC(=O)O)C(=O)N[C@@H](CCCCNC(=S)Nc1ccc(-c2c3ccc(=O)cc-3oc3cc(O)ccc23)c(C(=O)O)c1)C(N)=O ({Benzoyl(4-Br)}-F[Abu]F[Lys(Me3)]SEK(X1)-NH2) | 180000 | 960 | 700 | 800 | 1500 | 300 |  |  |  |  | 
CC[C@H](NC(=O)[C@H](Cc1ccccc1)NC(=O)c1ccc(Br)cc1)C(=O)N[C@H](C(=O)N[C@@H](CCCC[N+](C)(C)C)C(=O)N[C@@H](CO)C(=O)N[C@@H](CCC(=O)O)C(=O)N[C@@H](CCCCNC(=S)Nc1ccc(-c2c3ccc(=O)cc-3oc3cc(O)ccc23)c(C(=O)O)c1)C(N)=O)C1CCCC1 ({Benzoyl(4-Br)}-F[Abu][Gly(cPent)][Lys(Me3)]SEK(X1)-NH2) | 3200 | 120 | 600 | 350 | 390 | 160 |  |  |  |  | Selectivity ratio (Homo sapiens [18]): 5; Selectivity ratio (Homo sapiens [19]): 26; Selectivity ratio (Homo sapiens [20]): 2; Selectivity ratio (Homo sapiens [21]): 3; Selectivity ratio (Homo sapiens [22]): 3
CC(C)C[C@H](NC(=O)[C@H](C)NC(=O)[C@H](Cc1ccccc1)NC(=O)CCNC(=S)Nc1ccc(-c2c3ccc(=O)cc-3oc3cc(O)ccc23)c(C(=O)O)c1)C(=O)N[C@@H](CCCC[N+](C)(C)C)C(=O)N[C@@H](CO)C(N)=O ({X1-βAla}-FAL[Lys(Me3)]S-NH2) | 2500 | 4500 | 800 | 900 | 1100 | 700 |  |  |  |  | 
